Results: patent US20220363665A1, “QUINOLINE COMPOUNDS FOR THE TREATMENT OF AUTOIMMUNE DISEASE” (Hoffmann-La Roche Inc., priority 2019, published 2022)
Values after ≈ are worked out from the molar mass of the structure shown.

Tests used:
human TLR9 = target: T1, human TLR9 (Homo sapiens, UniProt Q9NR96); test: HEK293-Blue-hTLR-9 cells assay (SEAP reporter, ODN2006 stimulation); assay type: cell-based; details: HEK293-Blue-hTLR9 cells, ODN2006, 20 hrs
T1 construct: host or cells: HEK293 (HEK-Blue hTLR9)
T1 sequence (Q9NR96 26-1032): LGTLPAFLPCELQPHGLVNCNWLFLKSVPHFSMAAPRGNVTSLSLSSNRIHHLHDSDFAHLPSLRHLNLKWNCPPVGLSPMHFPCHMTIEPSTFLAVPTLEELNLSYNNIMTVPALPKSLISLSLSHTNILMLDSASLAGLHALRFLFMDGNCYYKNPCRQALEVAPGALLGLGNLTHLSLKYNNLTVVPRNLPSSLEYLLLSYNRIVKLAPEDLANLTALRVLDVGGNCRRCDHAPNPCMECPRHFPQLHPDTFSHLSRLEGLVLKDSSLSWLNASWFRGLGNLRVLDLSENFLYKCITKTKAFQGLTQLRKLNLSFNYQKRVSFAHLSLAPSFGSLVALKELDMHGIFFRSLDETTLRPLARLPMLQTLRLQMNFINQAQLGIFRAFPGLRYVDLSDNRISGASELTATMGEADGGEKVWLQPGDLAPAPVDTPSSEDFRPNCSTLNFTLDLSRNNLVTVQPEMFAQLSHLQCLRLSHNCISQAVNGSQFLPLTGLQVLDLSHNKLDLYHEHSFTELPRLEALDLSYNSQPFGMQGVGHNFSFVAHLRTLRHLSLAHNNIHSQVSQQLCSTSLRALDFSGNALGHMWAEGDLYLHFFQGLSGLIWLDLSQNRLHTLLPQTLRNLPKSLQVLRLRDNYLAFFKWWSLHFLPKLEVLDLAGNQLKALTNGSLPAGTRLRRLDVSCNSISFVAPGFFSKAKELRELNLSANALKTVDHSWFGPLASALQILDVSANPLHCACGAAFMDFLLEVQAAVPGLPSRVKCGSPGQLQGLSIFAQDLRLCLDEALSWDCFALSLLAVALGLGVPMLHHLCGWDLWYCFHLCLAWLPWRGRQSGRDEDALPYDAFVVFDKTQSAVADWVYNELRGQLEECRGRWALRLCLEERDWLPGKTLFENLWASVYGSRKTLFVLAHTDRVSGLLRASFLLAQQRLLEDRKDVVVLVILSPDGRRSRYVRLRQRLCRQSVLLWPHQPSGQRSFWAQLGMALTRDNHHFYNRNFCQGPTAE
Procedure: The following tests were carried out in order to determine the activity of the compounds of formula (I) in HEK293-Blue-hTLR-7/8/9 cells assay.
HEK293-Blue-hTLR-9 Cells Assay:
A stable HEK293-Blue-hTLR-9 cell line was purchased from InvivoGen (Cat. #. hkb-htlr9, San Diego, Calif., USA). These cells were originally designed for studying the stimulation of human TLR9 by monitoring the activation of NF-κB. A SEAP (secreted embryonic alkaline phosphatase) reporter gene was placed under the control of the […] minimal promoter fused to five NF-κB and AP-1-binding sites. The SEAP was induced by activating NF-κB and AP-1 via stimulating HEK-Blue hTLR9 cells with TLR9 ligands. Therefore the reporter expression was declined by TLR9 antagonist under the stimulation of a ligand, such as ODN2006 (Cat. #: tlrl-2006-1, Invivogen, San Diego, Calif., USA), for incubation of 20 hrs. The cell culture supernatant SEAP reporter activity was determined using QUANTI-Blue™ kit (Cat. #: rep-qbl, Invivogen, San Diego, Calif., USA) at a wavelength of 640 nm, a detection medium that turns purple or blue in the presence of alkaline phosphatase.
HEK293-Blue-hTLR9 cells were incubated at a density of […] cells/mL in a volume of 170 μL, in a 96-well plate in Dulbecco's Modified Eagle's medium (DMEM) containing 4.5 g/L glucose, 50 U/mL penicillin, […], […], 2 mM L-glutamine, 10% (v/v) heat-inactivated fetal bovine serum with addition of 20 μL test compound in a serial dilution in the presence of final DMSO at 1% and 10 μL of 20 uM ODN2006 in above DMEM, perform incubation under 37° C. in a CO2 incubator for 20 hrs. Then 20 μL of the supernatant from each well was incubated with 180 μL Quanti-blue substrate solution at 37° C. for 2 hrs and the absorbance was read at 620˜655 nm using a spectrophotometer. The signalling pathway that TLR9 activation leads to downstream NF-κB activation has been widely accepted, and therefore similar reporter assay was modified for evaluating TLR9 antagonist.

LYSA solubility assay = assay type: physicochemical; details: 0.05 M phosphate buffer, pH 6.5, aqueous buffer, thermodynamic from solid
Procedure: LYSA study is used to determine the aqueous solubility of tested compounds. Samples are prepared in duplicate from 10 mM DMSO stock solution. After evaporation of DMSO with a centrifugal vacuum evaporator, compounds are dissolved in a 0.05 M phosphate buffer (pH 6.5), stirred for one hr and shaken for two hrs. After one night, the solutions are filtered using a microtiter filter plate. Then the filtrate and its 1/10 dilution are analyzed by HPLC-UV. In addition, a four-point calibration curve is prepared from the 10 mM stock solutions and used for the solubility determination of the compounds. The results are in μg/mL. In case the percentage of sample measured in solution after evaporation divided by the calculated maximum of sample amount is bigger than 80%, the solubility is reported as bigger than this value.

| IC50 (human TLR9) [µM] | solubility thermodynamic (LYSA solubility assay) [µg/mL] | Compound |
| --- | --- | --- |
| 12.4 | > 470 | C[C@@H]1CN(c2ccc(Cl)c3ncccc23)C[C@H](C(=O)NC2CCCNCC2)O1 (stereo partly drawn) [Example 25, (2R,6R)-N-(azepan-4-yl)-4-(8-chloro-5-quinolyl)-6-methyl-morpholine-2-carboxamide] |
| 46 | > 520 | C[C@@H]1CN(c2ccc(Cl)c3ncccc23)C[C@H](C(=O)NCC2CN(C)CCO2)O1 (stereo partly drawn) [Example 26, (2R,6R)-4-(8-chloro-5-quinolyl)-6-methyl-N-[(4-methylmorpholin-2-yl)methyl]morpholine-2-carboxamide] |
| 28.1 | > 585 | C[C@@H]1CN(c2ccc(C(F)(F)F)c3ncccc23)C[C@H](C(=O)NC[C@@H]2C[C@@H](F)CN2)O1 [Example 27, (2R,6R)-N-[[(2S,4R)-4-fluoropyrrolidin-2-yl]methyl]-6-methyl-4-[8-(trifluoromethyl)-5-quinolyl]morpholine-2-carboxamide] |
| > 100 | 480 (≈ 1050 µM) | C[C@@H]1CN(c2ccc(C(F)(F)F)c3ncccc23)C[C@H](C(=O)NC2CNCC(F)(F)C2)O1 (stereo partly drawn) [Example 28, (2R,6R)-N-(5,5-difluoro-3-piperidyl)-6-methyl-4-[8-(trifluoromethyl)-5-quinolyl]morpholine-2-carboxamide] |
| > 100 | 565 (≈ 1230 µM) | C[C@@H]1CN(c2ccc(C(F)(F)F)c3ncccc23)C[C@H](C(=O)NCC2CNCC2(F)F)O1 (stereo partly drawn) [Example 29, (2R,6R)-N-[(4,4-difluoropyrrolidin-3-yl)methyl]-6-methyl-4-[8-(trifluoromethyl)-5-quinolyl]morpholine-2-carboxamide] |
| > 100 | 375 (≈ 818 µM) | C[C@@H]1CN(c2ccc(C(F)(F)F)c3ncccc23)C[C@H](C(=O)NC[C@@H]2CC(F)(F)CN2)O1 [Example 30] |
| 9.2 | > 597 | C[C@@H]1CN(c2ccc(C(F)(F)F)c3ncccc23)C[C@H](C(=O)NC2C3CCC2CNC3)O1 (stereo partly drawn) [Example 31, (2R,6R)-N-(3-azabicyclo[3.2.1]octan-8-yl)-6-methyl-4-[8-(trifluoromethyl)-5-quinolyl]morpholine-2-carboxamide] |
| 3.7 | > 640 | C[C@@H]1CN(c2ccc(C(F)(F)F)c3ncccc23)C[C@H](C(=O)N2CCC3(CCNCC3)CC2)O1 [Example 32, 3,9-diazaspiro[5.5]undecan-3-yl-[(2R,6R)-6-methyl-4-[8-(trifluoromethyl)-5-quinolyl]morpholin-2-yl]methanone] |
| 12.3 | > 595 | C[C@@H]1CN(c2ccc(C(F)(F)F)c3ncccc23)C[C@H](C(=O)N2CCC3(CCNC3)C2)O1 (stereo partly shown) [Example 36] |
| 7.8 | > 660 | C[C@@H]1CN(c2ccc(C(F)(F)F)c3ncccc23)C[C@H](C(=O)NC2CC3CNCC(C3)C2)O1 (stereo partly drawn) [Example 37, (2R,6R)-N-(3-azabicyclo[3.3.1]nonan-7-yl)-6-methyl-4-[8-(trifluoromethyl)-5-quinolyl]morpholine-2-carboxamide] |
| 6 | > 650 | C[C@@H]1CN(c2ccc(I)c3ncccc23)C[C@H](C(=O)NC2CCN(C)CC2)O1 [Example 38, (2R,6R)-4-(8-iodo-5-quinolyl)-6-methyl-N-(1-methyl-4-piperidyl)morpholine-2-carboxamide] |
| 35.8 | > 625 | C[C@@H]1CN(c2ccc(I)c3ncccc23)C[C@H](C(=O)NCC2CN(C)CCO2)O1 (stereo partly drawn) [Example 39, (2R,6R)-4-(8-iodo-5-quinolyl)-6-methyl-N-[(4-methylmorpholin-2-yl)methyl]morpholine-2-carboxamide] |
| 22.4 | 555 (≈ 1150 µM) | C[C@@H]1CN(c2ccc(I)c3ncccc23)C[C@H](C(=O)NC2CNCC2F)O1 (stereo partly drawn) [Example 40, cis-(2R,6R)-N-[4-fluoropyrrolidin-3-yl]-4-(8-iodo-5-quinolyl)-6-methyl-morpholine-2-carboxamide] |
| 23.2 | > 675 | C[C@@H]1CN(c2ccc(Br)c3ncccc23)C[C@H](C(=O)NC2CNCC2F)O1 (stereo partly drawn) [Example 41, cis-(2R,6R)-4-(8-bromo-5-quinolyl)-N-[4-fluoropyrrolidin-3-yl]-6-methyl-morpholine-2-carboxamide] |
| 10.6 | > 550 | C[C@@H]1CN(c2ccc(Br)c3ncccc23)C[C@H](C(=O)NC2CCN(C)CC2)O1 [Example 42, (2R,6R)-4-(8-bromo-5-quinolyl)-6-methyl-N-(1-methyl-4-piperidyl)morpholine-2-carboxamide] |
| 12.3 | > 560 | C#Cc1ccc(N2C[C@@H](C)O[C@@H](C(=O)NC3CCN(C)CC3)C2)c2cccnc12 [Example 43, (2R,6R)-4-(8-ethynyl-5-quinolyl)-6-methyl-N-(1-methyl-4-piperidyl)morpholine-2-carboxamide] |
| 15.7 | > 600 | C[C@@H]1CN(c2ccc(C(F)(F)F)c3ncccc23)C[C@H](C(=O)NC2C[C@H]3C[C@@H]2CN3)O1 (stereo partly shown) [Example 44] |
| 11.6 | > 660 | C[C@@H]1CN(c2ccc(C(F)(F)F)c3ncccc23)C[C@H](C(=O)NC2C3CCCC2CNC3)O1 (stereo partly drawn) [Example 45, (2R,6R)-N-(3-azabicyclo[3.3.1]nonan-9-yl)-6-methyl-4-[8-(trifluoromethyl)-5-quinolyl]morpholine-2-carboxamide] |
| 11.7 | > 625 | C[C@@H]1CN(c2ccc(C(F)(F)F)c3ncccc23)C[C@H](C(=O)NCC2CNCCO2)O1 (stereo partly drawn) [Example 48, (2R,6R)-6-methyl-N-(morpholin-2-ylmethyl)-4-[8-(trifluoromethyl)-5-quinolyl]morpholine-2-carboxamide] |

| Compound | IC50 (human TLR9) [µM] | solubility thermodynamic (LYSA solubility assay) [µg/mL] |
| --- | --- | --- |
| C[C@@H]1CN(c2ccc(C(F)(F)F)c3ncccc23)C[C@H](C(=O)NC2CC3COCC(C2)N3)O1 (stereo partly drawn) [Example 33, (2R,6R)-6-methyl-N-(3-oxa-9-azabicyclo[3.3.1]nonan-7-yl)-4-[8-(trifluoromethyl)-5-quinolyl]morpholine-2-carboxamide] | 23.6 | 350 (≈ 754 µM) |
